Measured values from patent US20230348506A1, “MACROCYCLIC PANTETHEINE DERIVATIVES AND USES THEREOF” (VectivBio Comet AG, priority 2019, published 2023).

Columns and labels:
Type in all cases: cell-based, human
[1] = test system: primary adherent fibroblast cell line derived from an Methylmalonic Acidemia (MMA) patient (GM01673, Coriell Institute for Medical Research); test: Mitochondrial respiration (Seahorse XFe96, OCR), Spare Capacity AUC; details: 10 μM compound; medium with 10 mM glucose, 2 mM glutamine, 1 mM pyruvate; 1 μM FCCP for 20 cycles; relative to vehicle
Method: The effect of the compounds of the present disclosure on mitochondrial respiration was measured with a XFe96 Extracellular Flux Analyzer (Seahorse Bioscience, Agilent Technologies) and Oxygen consumption Rate (OCR) and Extracellular acidification rate (ECAR) determined.
Cell culture and treatments. Primary adherent fibroblasts were cultured in minimum essential medium (MEM) (Gibco, 25030081) supplemented with 2 mM L-Glutamine (Gibco, 25030081), 15% fetal bovine serum (FBS) (Gibco, 26400044) and 1% penicillin/streptomycin (Gibco, 5140122) at 37° C. and 5% CO2. Cells were collected for either passaging or experiment at ˜70-80% confluence. Cells were obtained by trypsinization and seeded at 10,000 cells/well in cell culture microplates (Seahorse Bioscience, 101085-004) and allowed to adhere for 48 hours in culture media. […]
Determining the optimized cell density and concentrations for stress test, such as FCCP, were achieved through methods well known to those of skill in the art. After baseline measurements of OCR, cells were challenged with compounds of the present disclosure at different concentrations (10 to 50 μM) or vehicle (DMSO, 0.1%) and a post-compound baseline was recorded. OCR was measured after sequentially adding to each well 1.5 μg/ml oligomycin (inhibitor of ATP synthase Sigma-Aldrich, 753531), then maximal OCR was determined with carbonyl cyanide 4-(trifluoromethoxy) phenylhydrazone (FCCP, Sigma-Aldrich, C2920), (uncoupler of oxidative phosphorylation) and 1.0 μM of rotenone (Sigma-Aldrich, R8875) plus antimycin A (Sigma-Aldrich, A8674) (inhibitors of mitochondrial complex I and III) for determination of rotenone-antimycin insensitive respiration together with Hoechst for nuclear staining in situ when normalized to cell counts. After the analysis and nuclear staining, the XFp microplate was transferred to the Cytation 5, and the nuclear images were captured, the individual nuclei were identified and counted by BioTek Gen5 software. […]

[2] = test system: MMA Patient fibroblasts (GM01673, Coriell Institute for Medical Research); test: Mitochondrial fusion and networking (high-content imaging); parameters: key: Mitochondrial elongation and networking was described as slight, mild or good; Mitochondrial elongation and networking was described as slight, mild or good; Mitochondrial elongation and networking was described as slight, mild or good; details: 10 μM compound, 2 hours, compared to vehicle control
Method: Cells were seeded in 96-well plates (density 3000 cells/well) in culture minimum MEM (GIBCO, 10370-021) supplemented with 2 mM L-Glutamine (Thermo Fisher Scientific), 15% FBS (Thermo Fisher Scientific 26400044) and 1% penicillin/streptomycin. Cells were incubated for 48 hours (37° C, 5% CO2), then treated with 10 μM compounds from the present disclosure, 1% DMSO (vehicle) or 5 μM FCCP (control) for 2 hours in fasted conditional medium: Agilent XF DMEM (Agilent 103575-100), pH 7.4 supplemented with 10% FBS (Thermo Fisher Scientific 26400044), 0.03% penicillin/streptomycin 1 mM glucose, 2 mM L-glutamine and 1 mM pyruvate.
After treatment, media was removed, and cells were stained with 100 μl of 1×mixture dye solution of 1 μg/mL JC-1 (Invitrogen Cat #T3168) and 50 ng/ml MitoTracker deep red (Invitrogen Cat #M22426) at 37° C. for 30 minutes. Next, staining was removed, the cells were washed once with 150 μl PBS, and 150 μl of fasted conditional medium (described above) is added to each well. Analysis was carried out on live cells using a Thermo Scientific CellInsight CX7 LZR High-Content Screening Platform. Mitochondrial elongation and networking was described as slight, mild or good.

HepG2 cells = test: Glucose uptake (Glucose Uptake-Glo assay); details: 10 μM compound; insulin control 100 nM
Method: The effect of compounds from the present disclosure on glucose uptake was determined in HepG2 cells (ATCC, HB-8065) using the glucose uptake Glo Assay Kit (Promega, J1343 according to manufacturer instructions. HepG2 cells were cultured in complete DMEM-glucose media (Gibco) supplemented with 10% FBS (37° C. incubator with 5% CO2) and seeded in 96-well plates at 30,000 cells/well. After removing the complete media, 100 μL/well of serum-free, high-glucose DMEM media were added to the wells and incubated overnight (37° C. incubator with 5% CO2). Media was then replaced with 100 μL/well DPBS containing 0.6% BSA and starved for 1 hour. Next, DPBS was removed and 45 μl/well of insulin (100 nM) or compounds (10 μM-50 μM) were added to the wells and incubated for 10 minutes (37° C. incubator with 5% CO2). Insulin and compounds were prepared in DPBS with 0.6% BSA with a final DMSO concentration of 0.1%. Next, 5 μL of 2DG (10 mM) in DPBS were added per well and allowed to incubate for 20 minutes followed by addition of 25 μL stop buffer. 37.5 μL of the mixture were then transferred to a new plate and 12.5 μL of Neutralization buffer added to the wells. After, 50 μL of 2DG6P detection Reagent were added and incubated for 0.5-1 hour at room temperature. Luminescence was measured with 0.3-1 second integration on a luminometer. […]

CC(C)(CO)[C@H]1OC(=O)CCC(=O)SCCNC(=O)CCNC1=O [Compound 61, (R)-2-(1-hydroxy-2-methylpropan-2-yl)-1-oxa-11-thia-4,8-diazacyclopentadecane-3,7,12,15-tetraone]
increase of Spare Capacity AUC [1]: > 20% | mitochondrial elongation and networking [2]: slight | stimulation of Glucose Uptake, % of insulin control (HepG2 cells): at least 15%
